How the values were obtained:
Format in all cases: cell-based, human
cathepsin G (CatG) = test: CatG activity in lysates of neutrophils differentiated in the presence of INS1007; conditions: highest concentration tested (10 μM); data not shown
Protocol: (§1) To evaluate the pharmacological effects of INS1007 on surface PR3 expression, total PR3 expression, and NSP activity, stem cells were differentiated to neutrophils in the presence of INS1007 at increasing concentrations. Primary bone marrow (BM) or umbilical cord blood (UC) derived CD34^+ neutrophil progenitor cells (AllCells; Alameda, Calif.) were cultured for 7 days in STEMSPAN™ SFEM media (Stemcell Technologies; Tukwila, Wash.) supplemented with recombinant human Stem Cell Factor (Peprotech; Rocky Hill, N.J.) and recombinant human IL-3 (Peprotech). […]
(§2) Neutrophils in a separate aliquot of harvested neutrophils were lysed with 10% (v/v) Triton X-100 in PBS and the lysates were added to 96-well plates. Peptide substrates for NE (N-Methoxysuccinyl-Ala-Ala-Pro-Val-7-amido-4-methylcoumarin; Sigma-Aldrich; St. Louis, Mo.), for PR3 (aminobenzoyl-Val-Ala-Asp-Cys-Ala-Asp-Gln-Lys(2,4-dinitrophenyl); GenScript; Piscataway, N.J.), and for CatG (N-Succinyl-Ala-Ala-Pro-Phe p-nitroanilide; Sigma) were added, and either fluorescence or absorbance was quantified using a SYNERGY™ microplate reader (BioTek; Winooski, Vt.). […] A portion of cell lysate samples was retained for protein quantification using a PIERCE™ BCA Protein Assay Kit (Thermo Fisher) according to the manufacturer's instructions. […]

surface PR3 = test: Fluorescence microscopy of surface PR3 on differentiated neutrophils; conditions: differentiation in the presence of 10 μM INS1007; neutrophils derived from bone marrow or umbilical cord stem cells (both cell types)
Protocol: as §1, with “(Peprotech). The cells were differentiated in culture for another 7 days in STEMSPAN® SFEM media (Stemcell Technologies) with recombinant human Granulocyte Colony Stimulating Factor (Peprotech), plus increasing concentrations of INS1007 (0-10 μM).” for “(Peprotech).”
In a separate experiment, neutrophils were harvested, stained for 30 min. with either a mouse anti-PR3 monoclonal antibody (Abcam; Cambridge, Mass.) or a mouse monoclonal IgG isotype control (Abcam), followed by a Cy5-conjugated goat anti-mouse IgG secondary antibody (Abcam), fixed in 4% formaldehyde, and mounted to glass slides with PROLONG® Diamond Antifade Mountant with DAPI (Thermo Fisher; Waltham, Mass.). Samples were imaged with an Axio fluorescence microscope (Zeiss; Oberkochen, Germany) using constant settings while imaging samples from different treatment conditions.

neutrophil elastase (NE) = test: NE activity in lysates of neutrophils differentiated in the presence of INS1007; conditions: highest concentration tested (10 μM); FIG. 5
Protocol: as §1, §2

total proteinase 3 (PR3) = test: Total PR3 expression (surface and intracellular) by flow cytometry in differentiated neutrophils; conditions: for total PR3 levels: FIG. 3
Protocol: (§3) To evaluate the pharmacological effects of INS1007 on surface PR3 expression, total PR3 expression, and NSP activity, stem cells were differentiated to neutrophils in the presence of INS1007 at increasing concentrations. Primary bone marrow (BM) or umbilical cord blood (UC) derived CD34^+ neutrophil progenitor cells (AllCells; Alameda, Calif.) were cultured for 7 days in STEMSPAN™ SFEM media (Stemcell Technologies; Tukwila, Wash.) supplemented with recombinant human Stem Cell Factor (Peprotech; Rocky Hill, N.J.) and recombinant human IL-3 (Peprotech). The cells were differentiated in culture for another 7 days in STEMSPAN® SFEM media (Stemcell Technologies) with recombinant human Granulocyte Colony Stimulating Factor (Peprotech), plus increasing concentrations of INS1007 (0-10 μM). At the end of the differentiation/treatment period, cells were harvested for analysis.
(§4) Differentiated neutrophils were harvested for flow cytometry to quantify PR3 expression on the surface of neutrophils (FIGS. 1 and 2) and neutrophil total PR3 expression (FIG. 3).

proteinase 3 (PR3) = test: PR3 activity in lysates of neutrophils differentiated in the presence of INS1007; conditions: highest concentration tested (10 μM); FIG. 6
Protocol: as §1, §2

[1] = system: surface proteinase 3 (PR3); test: Surface PR3 expression by flow cytometry in neutrophils differentiated in the presence of INS1007; conditions: for percentage of cells with no detectable surface PR3 expression: untreated approximately 30-40%, FIG. 2
Protocol: as §3, §4
After harvest, the cells were resuspended in FACS staining buffer and Fc receptors were blocked for 30 min at 4° C. Cells were stained for 30 min with a mouse anti-PR3 monoclonal antibody (Abcam: Cambridge, Mass.) or a mouse monoclonal IgG isotype control (Abcam), followed by a Cy5-conjugated goat anti-mouse IgG secondary antibody (Abcam), and then analyzed using a GUAVA® EASYCYTEI^M 6HT flow cytometer (Millipore; Billerica, Mass.).

SMILES: Cn1c(=O)oc2ccc(-c3ccc(C[C@@H](C#N)NC(=O)[C@@H]4CNCCCO4)cc3)cc21 [INS1007, (2S)—N-{(1S)-1-cyano-2-[4-(3-methyl-2-oxo-2,3-dihydro-1,3-benzoxazol-5-yl)phenyl]ethyl}-1,4-oxazepane-2-carboxamide]
- decrease of CatG activity (cathepsin G (CatG)): greater than 75%
- surface PR3 (fluorescence microscopy) (surface PR3): markedly reduced
- decrease of NE activity (neutrophil elastase (NE)): > 90%
- total PR3 levels (total proteinase 3 (PR3); bone marrow stem cell-derived neutrophils, not completely concentration-dependent): significantly reduced
- percentage of cells with positive total PR3 expression (total proteinase 3 (PR3); neutrophils derived from either umbilical cord blood or bone marrow stem cells, FIG. 4): did not reduce
- total PR3 levels (total proteinase 3 (PR3); umbilical cord blood stem cell-derived neutrophils): did not reach statistically significant reduction
- decrease of PR3 activity (proteinase 3 (PR3)): > 90%
- percentage of cells with no detectable surface PR3 expression ([1]; neutrophils derived from bone marrow stem cells): ~80%
- maximum reduction of surface PR3 expression (MFI, percent of untreated cells) ([1]; neutrophils derived from both bone marrow and umbilical cord blood stem cells, INS1007 0-10 μM, FIG. 1): greater than 60%
- percentage of cells with no detectable surface PR3 expression ([1]; neutrophils derived from umbilical cord blood stem cells): more than 50%

— patent US20200390781A1, “CERTAIN (2S)-N-[(1S)-1-CYANO-2-PHENYLETHYL]-1,4-OXAZEPANE-2-CARBOXAMIDES FOR TREATING ANCA ASSOCIATED VASCULITIDES” (INSMED INCORPORATED, priority 2018, published 2020)
